Reference: US7183106B1, “Bacterial inosine 5′-monophosphate dehydrogenase (“IMPDH”) DNA as a dominant selectable marker in mammals and other eukaryotes” (The United States of America as represented by the United …, priority 2004, dated 2007)

Experiments:
Assay in all cases: MPA toxicity by MTT assay
PC3 cells = format: cell-based, human
Description: (§1) The mammalian cells (2×10^7) (i.e. V79, MDA-MB-231, PC3, COS7) were washed once with phosphate buffered saline (PBS), resuspended in 400 μl of Cytomix buffer, placed in an electroporation cuvette and transfected with 10 μg of DNA by electroporation at 200V, 30 ms, in an ElectroSquarePorator T280 electroporator (BTX, Inc., San Diego, Calif.). Immediately after electroporation, the cuvettes were placed on ice for 10–15 min. After that the cells were washed once in PBS and 1×10^6 viable cells, as determined by trypan blue exclusion, were re-suspended in 10 ml of growth medium in 100 mm tissue culture plates, incubated overnight at 37° C. and treated the next day with 0.8 μg/ml of MPA (stock concentration at 14.2 mg/ml in DMSO, Sigma, St. Louis, Mo.) or 600 μg/ml of G418. For the different assays, cells were obtained from either individual or pooled MPA-resistant colonies. For colony isolation, visible individual colonies were each picked and aspirated into a glass Pasteur pipette and transferred into a well of a 24-well tissue culture plate. The next day, after rinsing the wells with the colonies with PBS and incubation for 1–2 min in a drop of a trypsin/EDTA solution, the cells within each well were dispersed by forceful pipetting. Next, the cells were incubated in growth medium to generate a monolayer culture, which was used to determine the cells' susceptibility to MPA. Cultures were also obtained from single MPA-resistant cells derived from pooled colonies by seeding 2.5 cells/ml into 96-well flat-bottom microtiter plates in 200 μl of growth medium/well and only cultures deriving from wells that were initially found to contain single cells were used. MPA toxicity was determined by the MTT (methylthiazoletetrazolium) assay (described in detail below) while the expression of the green fluorescent protein (GFP) was detected by fluorescence microscopy and/or flow cytometry.
(§2) Cell survival and proliferation was measured using the MTT assay, which detects active mitochondria and as a result viable cells. For this assay, 2×10^4 cells were suspended in 200 μl of growth medium/well in 96-well flat-bottom microtiter plates with various stimuli and incubated at 37° C. After 6 d, 10 μl of MTT solution (5 mg/ml in PBS) (Sigma, St. Louis, Mo.) was added to each well and the plates were incubated for an additional 4 h at 37° C. In the case of V79 cells, which grow twice as fast as the other cell lines, the MTT solution was added after 3 d. The plates were then centrifuged at 1000 rpm for 5 min, supernatants discarded and 100 µl of DMSO added per well, and the plates were read at 540 nm using a microtiter plate reader.

MDA-MB-231 cells = format: cell-based, human
Description: as §1, §2

COS7 cells = format: cell-based, monkey
Description: as §1, with “Cultures were also obtained from single MPA-resistant cells derived from pooled colonies by seeding 2.5 cells/ml into 96-well flat-bottom microtiter plates in 200 μl of growth medium/well and only cultures deriving from wells that were initially found to contain single cells were used.” left out
Cell survival and proliferation was measured using the MTT assay, which detects active mitochondria and as a result viable cells. […] The plates were then centrifuged at 1000 rpm for 5 min, supernatants discarded and 100 µl of DMSO added per well, and the plates were read at 540 nm using a microtiter plate reader.

V79 cells = format: cell-based, Chinese hamster
Description: as §1, §2

COc1c(C)c2c(c(O)c1C/C=C(\C)CCC(=O)O)C(=O)OC2 [MPA, mycophenolic acid]
MTT staining of control cultures after 4 weeks of MPA treatment (PC3 cells; control (not transfected parental) PC3 cultures, 4 weeks): no MTT staining above background levels
MPA concentration to whose cytotoxic effect the cells were resistant (PC3 cells; single cell-derived cultures from pooled MPA-resistant PC3 colonies): up to 50 μg/ml
Time after MPA treatment at which growth inhibition was detected (PC3 cells; wild type PC3 cells): 6 days
MTT staining of control cultures after 4 weeks of MPA treatment (MDA-MB-231 cells; control (not transfected parental) MDA-MB-231 cultures, 4 weeks): no MTT staining above background levels
MPA concentration to whose cytotoxic effect the cells were resistant (MDA-MB-231 cells; single cell-derived cultures from pooled MPA-resistant MDA-MB-231 colonies): up to 50 μg/ml
Time after MPA treatment at which growth inhibition was detected (MDA-MB-231 cells; wild type MDA-MB-231 cells): 6 days
MTT staining of control cultures after 4 weeks of MPA treatment (COS7 cells; control (not transfected parental) COS7 cultures, 4 weeks): no MTT staining above background levels
MPA concentration to whose cytotoxic effect the cells were resistant (COS7 cells; single cell-derived cultures from pooled MPA-resistant COS7 colonies): up to 50 μg/ml
Time after MPA treatment at which growth inhibition was detected (COS7 cells; wild type COS7 cells): 6 days
MPA concentration to whose cytotoxic effect the cells were resistant (V79 cells; 7 individual MPA-resistant V79 colonies (pFLAG-IMPDH transfected), MTT assay): up to 50 μg/ml
MPA concentration at which cells failed to grow (V79 cells; parental (not transfected) V79 cells): ≤ 0.8 µg/mL
MPA concentration to whose cytotoxic effect the cells were resistant (V79 cells; single cell-derived cultures from pooled MPA-resistant V79 colonies): up to 50 μg/ml
Time after MPA treatment at which growth inhibition was detected (V79 cells; wild type V79 cells): 3 days
